Results from ChEMBL document CHEMBL5537137, “Design, synthesis and biological evaluation of biaryl amide derivatives against SARS-CoV-2 with dual-target mechanism” (Eur J Med Chem, 2024).

Legend:
[1] = Cytotoxicity against human NCI-H460 cells incubated for 72 hrs by CCK-8 assay
[2] = system: Human coronavirus OC43; experiment: microbe, parasite or virus in culture; settings: Betacoronavirus 1, VR-1558, NCI-H460, 72 h
[3] = in vitro; settings: human, NCI-H460 cells
[4] = Cytotoxicity against human Huh7.5 cells
[5] = Cytotoxicity against human H9 cells

Compound	CC50 at 72 h [1] [µM]	EC50 [2] [µM]	selectivity ratio [3]	CC50 [4] [µM]	CC50 [5] [µM]
CN1CCN(Cc2ccc(NC(=O)c3ccc(OCCCCl)c(C(F)(F)F)c3)cc2C(F)(F)F)CC1	6.2	2.94	2		
CN1CCN(Cc2ccc(NC(=O)c3ccc(OCCCCl)c([N+](=O)[O-])c3)cc2C(F)(F)F)CC1	15	2.47	6.1		
CN1CCN(Cc2ccc(NC(=O)c3ccc(OCCCCl)c(F)c3)cc2C(F)(F)F)CC1	13.4	5.34	3		
CC(C)Oc1ccc(C(=O)Nc2ccc(CN3CCN(C)CC3)c(C(F)(F)F)c2)cc1[N+](=O)[O-]	19.2	3.54	5.4		
CN(C)C1CN(Cc2ccc(NC(=O)c3ccc(OCCCl)c([N+](=O)[O-])c3)cc2C(F)(F)F)C1	19.2	2.97	6.5	6.47	
CN(C)C1CN(Cc2ccc(NC(=O)c3ccc(OCCCCl)c([N+](=O)[O-])c3)cc2C(F)(F)F)C1	49.8	8.64	6		
CN1CCN(Cc2ccc(NC(=O)c3ccc(OCCCCl)c([N+](=O)[O-])c3)cn2)CC1	43.7	19.2	2.3		
CCC(=O)Nc1cc(C(=O)Nc2ccc(CN3CCN(C)CC3)c(C(F)(F)F)c2)ccc1OCCCCl	27.1	5.74	4.73		
CN1CCN(Cc2ccc(NC(=O)c3ccc(OCCCl)c([N+](=O)[O-])c3)cc2C(F)(F)F)CC1	13	3.73	3.5		
O=C(Nc1ccc(CN2CC(C(=O)O)C2)c(C(F)(F)F)c1)c1ccc(OCCCCl)c([N+](=O)[O-])c1	> 200	> 66.7			
CN(C)C1CCN(Cc2ccc(NC(=O)c3ccc(OCCCCl)c([N+](=O)[O-])c3)cc2C(F)(F)F)C1 (stereo unspecified)	28.2	9.76	2.9		
CC1CN(Cc2ccc(NC(=O)c3ccc(OCCCCl)c([N+](=O)[O-])c3)cc2C(F)(F)F)CC(C)O1 (stereo unspecified)	4.69	2.49	2		
CN(C)C1CCN(Cc2ccc(NC(=O)c3ccc(OCCCCl)c([N+](=O)[O-])c3)cc2C(F)(F)F)CC1	18.5	3.93	4.7		
CN1CCN(Cc2ccc(NC(=O)c3ccc(OCCCCl)c([N+](=O)[O-])c3)cc2C#N)CC1	136	12.1	11.2		
CN1CCN(Cc2ccc(NC(=O)c3ccc(OCCCCl)c(S(N)(=O)=O)c3)cc2C(F)(F)F)CC1	40.4	4.11	9.8		
COc1ccc(C(=O)Oc2cc(OC)c(OC)c(OC)c2)cc1NC(=O)C(C)Br (stereo unspecified)					3.64
CN1CCN(CCCNC(=O)C2CN(Cc3ccc(NC(=O)c4ccc(OCCCCl)c([N+](=O)[O-])c4)cc3C(F)(F)F)C2)CC1	59.1	18.6	3.2		
CN(C)C1CCN(Cc2ccc(NC(=O)c3ccc(OCC4CC4)c([N+](=O)[O-])c3)cc2C(F)(F)F)CC1	14.2	1.24	11		
CN(C)C1CC(Oc2ccc(NC(=O)c3ccc(O)c([N+](=O)[O-])c3)cc2C(F)(F)F)C1 (stereo unspecified)	186	27.2	7		
CN1CCN(Cc2ccc(NC(=O)c3ccc(OCCF)c([N+](=O)[O-])c3)cc2C(F)(F)F)CC1	24.5	2.64	9		
CN(C)C1CC(Oc2ccc(NC(=O)c3ccc(OCCC(F)(F)F)c([N+](=O)[O-])c3)cc2C(F)(F)F)C1 (stereo unspecified)	31.3	2.01	16		
COc1ccc(C(=O)Nc2ccc(OC3CC(N(C)C)C3)c(C(F)(F)F)c2)cc1[N+](=O)[O-] (stereo unspecified)	139	19.5	7		
CN1CCN(Cc2ccc(NC(=O)c3ccc(OCCCCl)c(NS(C)(=O)=O)c3)cc2C(F)(F)F)CC1	38.5	12.8	3		
CN(C)C1CN(Cc2ccc(NC(=O)c3ccc(OCc4cc(C(F)(F)F)cc(C(F)(F)F)c4)c([N+](=O)[O-])c3)cc2C(F)(F)F)C1	5.07	> 3.13	< 1.7		
CN1CCN(Cc2ccc(NC(=O)c3ccc(F)c(C(F)(F)F)c3)cc2C(F)(F)F)CC1	14.5	4.15	3		
CN(C)C1CN(Cc2ccc(NC(=O)c3ccc(OCC(F)F)c([N+](=O)[O-])c3)cc2C(F)(F)F)C1	34.1	4.51	8		
